Results as given in article PMC11464693 (Nature Communications, 2024).

Tests used:
XDH = biological target: T1, XDH (Caulobacter vibrioides, UniProt B8H1Z0); test: NADH formation at […] nm; format: biochemical; settings: 10 mM D-xylose, 1 mM NAD+, 37 °C
T1 sequence (B8H1Z0 1-248): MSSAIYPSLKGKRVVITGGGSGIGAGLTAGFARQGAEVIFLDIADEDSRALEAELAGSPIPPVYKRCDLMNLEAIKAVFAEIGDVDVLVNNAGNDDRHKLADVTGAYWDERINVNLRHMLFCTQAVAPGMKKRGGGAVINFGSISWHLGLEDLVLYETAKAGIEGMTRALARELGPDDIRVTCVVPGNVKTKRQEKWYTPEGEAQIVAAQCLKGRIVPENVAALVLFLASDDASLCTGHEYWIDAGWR

laccase (Lac) = biological target: T2, laccase (Lac) (Bacillus subtilis, UniProt P07788); test: ABTS oxidation at […] nm, whole cells; format: cell-based; settings: 5 mM ABTS, 37 °C, pH optimum 5.0; surface-displayed enzyme
T2 sequence (P07788 1-513): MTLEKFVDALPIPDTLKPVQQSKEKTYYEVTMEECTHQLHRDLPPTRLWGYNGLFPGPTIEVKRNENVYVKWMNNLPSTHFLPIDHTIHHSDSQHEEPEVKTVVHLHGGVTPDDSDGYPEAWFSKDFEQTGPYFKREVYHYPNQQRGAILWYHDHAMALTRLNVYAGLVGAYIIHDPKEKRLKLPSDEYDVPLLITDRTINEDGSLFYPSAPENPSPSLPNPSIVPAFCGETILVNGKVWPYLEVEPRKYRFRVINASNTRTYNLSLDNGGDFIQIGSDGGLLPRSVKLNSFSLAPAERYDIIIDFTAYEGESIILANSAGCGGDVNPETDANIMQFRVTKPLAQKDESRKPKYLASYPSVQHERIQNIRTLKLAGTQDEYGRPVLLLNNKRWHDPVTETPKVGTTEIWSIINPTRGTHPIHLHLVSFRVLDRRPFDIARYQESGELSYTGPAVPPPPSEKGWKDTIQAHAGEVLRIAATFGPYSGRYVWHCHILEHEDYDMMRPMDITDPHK

KGSADH = biological target: T3, KGSADH (Caulobacter vibrioides, UniProt A0A0H3C801); test: NADH formation at […] nm; format: biochemical
T3 sequence (A0A0H3C801 1-478): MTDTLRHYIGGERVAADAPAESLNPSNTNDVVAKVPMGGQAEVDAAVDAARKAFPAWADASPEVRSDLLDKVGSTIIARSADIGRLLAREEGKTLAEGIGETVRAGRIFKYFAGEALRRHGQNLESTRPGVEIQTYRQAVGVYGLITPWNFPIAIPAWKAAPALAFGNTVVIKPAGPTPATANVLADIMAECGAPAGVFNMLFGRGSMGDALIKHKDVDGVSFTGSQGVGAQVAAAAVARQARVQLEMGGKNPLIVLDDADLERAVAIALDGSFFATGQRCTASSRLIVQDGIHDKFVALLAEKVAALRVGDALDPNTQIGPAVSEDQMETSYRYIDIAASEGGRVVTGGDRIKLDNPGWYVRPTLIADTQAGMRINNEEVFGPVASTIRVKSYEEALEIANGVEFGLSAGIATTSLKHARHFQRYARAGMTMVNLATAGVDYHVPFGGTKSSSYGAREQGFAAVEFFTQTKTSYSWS

XylC = XylC (Caulobacter vibrioides, UniProt A0A0H3C6P8); test: decrease of p-nitrophenol absorbance at […] nm; format: biochemical; settings: spontaneous hydrolysis controlled
XylD = biological target: T4, XylD (Caulobacter vibrioides, UniProt A0A0H3C6H6); test: semicarbazone assay at […] nm; format: biochemical; settings: 37 °C
T4 sequence (A0A0H3C6H6 1-591): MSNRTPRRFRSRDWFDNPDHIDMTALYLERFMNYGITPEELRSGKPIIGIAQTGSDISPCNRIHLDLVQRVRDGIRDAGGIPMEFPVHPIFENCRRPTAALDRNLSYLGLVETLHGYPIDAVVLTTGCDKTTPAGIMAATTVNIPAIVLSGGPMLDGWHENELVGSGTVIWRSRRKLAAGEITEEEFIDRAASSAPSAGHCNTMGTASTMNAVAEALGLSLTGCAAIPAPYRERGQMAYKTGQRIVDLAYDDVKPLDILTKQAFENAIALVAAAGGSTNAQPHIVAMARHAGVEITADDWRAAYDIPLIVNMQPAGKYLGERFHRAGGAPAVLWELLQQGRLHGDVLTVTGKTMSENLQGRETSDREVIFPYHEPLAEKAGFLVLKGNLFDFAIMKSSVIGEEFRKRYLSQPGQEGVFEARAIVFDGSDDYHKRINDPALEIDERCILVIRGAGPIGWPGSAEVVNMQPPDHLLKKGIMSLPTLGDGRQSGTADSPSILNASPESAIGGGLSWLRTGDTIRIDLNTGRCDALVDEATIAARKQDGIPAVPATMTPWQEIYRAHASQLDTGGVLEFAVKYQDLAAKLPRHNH

Sequence of XylC (A0A0H3C6P8 1-289): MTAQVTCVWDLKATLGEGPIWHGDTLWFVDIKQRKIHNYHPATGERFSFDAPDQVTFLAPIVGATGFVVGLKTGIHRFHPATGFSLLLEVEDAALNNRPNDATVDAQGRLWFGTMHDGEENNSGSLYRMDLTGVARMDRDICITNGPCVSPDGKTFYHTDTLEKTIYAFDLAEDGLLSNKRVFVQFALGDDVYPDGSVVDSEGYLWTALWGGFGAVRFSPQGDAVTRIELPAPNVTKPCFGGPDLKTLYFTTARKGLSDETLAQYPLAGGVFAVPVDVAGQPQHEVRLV

For `OC1OC[C@@H](O)[C@H](O)[C@H]1O` (stereo partly drawn) [D-xylose], the “NADH formation at 340 nm” value (XDH) was “D-xylose is oxidized into D-xylono-lactone and generates NADH catalyzed by XDH”.

`CCn1c(=NN=c2sc3cc(S(=O)(=O)O)ccc3n2CC)sc2cc(S(=O)(=O)O)ccc21` [ABTS, 2,2’-azino-bis (3-ethylbenzothiazoline-6-sulfonic acid)] was tested, and the “ABTS oxidation at 420 nm, whole cells” value (laccase (Lac)) was “The oxidation activity of E. coli-Lac towards ABTS was calibrated by measuring the absorbance”.

In the case of `NC(=O)c1ccc[n+]([C@@H]2O[C@H](COP(=O)(O)OP(=O)(O)OC[C@H]3O[C@@H](n4cnc5c(N)ncnc54)[C@H](O)[C@@H]3O)[C@@H](O)[C@H]2O)c1` [NAD^+], the “NADH formation at 340 nm” value (KGSADH; glutaraldehyde as substrate) is reported as “activity of KGSADH by following the rate of NAD^+ reduction” and the “NADH formation at 340 nm” value (XDH) is reported as “catalyzed by XDH using NAD^+ as coenzyme”.

For `O=CCCCC=O` [glutaraldehyde], the “NADH formation at 340 nm” value (KGSADH; NAD+, substitute substrate) was “monitored by measuring the generation of NADH using analogous glutaraldehyde as substrate”.

With `O=C1O[C@H](CO)[C@H](O)[C@H]1O` [xylono-1,4-lactone] the “decrease of p-nitrophenol absorbance at 405 nm” value (XylC) was “To examine the activity of XylC, D-xylono-lactone was used as substrate to produce D-xylonic acid”.

In the case of `O=C(O)[C@H](O)[C@@H](O)[C@H](O)CO` [D-xylonic acid], the “semicarbazone assay at 250 nm” value (XylD) is reported as “D-xylonic acid would be transformed into 2-keto-3-deoxyxylic acid by XylD”.
